# From ChEMBL document CHEMBL5584361, “Re-Evaluating PIN1 as a Therapeutic Target in Oncology Using Neutral Inhibitors and PROTACs” (J Med Chem, 2024)
# How the values were obtained:
# [1] = molecular target: T1, Peptidyl-prolyl cis-trans isomerase NIMA-interacting 1 (Homo sapiens, UniProt Q13526); assay: Binding affinity to GST-tagged PIN1 (unknown origin) assessed as dissociation constant by SPR analysis
# [2] = Efflux ratio of permeability across basolateral to apical side over apical to basolateral side in MDCK cells incubated for 120 mins by LC-MS/MS analysis; conditions: dog
# MDA-MB-468 = assay: Antiproliferative activity against human MDA-MB-468 cells assessed as cell growth inhibition incubated for 96 hrs by Cell-Titer Glo assay; conditions: MDA-MB-468, 96 h
# Huh-7 = assay: Antiproliferative activity against human Huh-7 cells assessed as cell growth inhibition incubated for 96 hrs by Cell-Titer Glo assay; conditions: Huh-7, 96 h
# [3] = Permeability across apical to basolateral side in MDCK cells incubated for 120 mins by LC-MS/MS analysis; conditions: dog
# PANC-1 = assay: Antiproliferative activity against human PANC-1 cells assessed as cell growth inhibition incubated for 96 hrs by Cell-Titer Glo assay; conditions: PANC-1, 96 h
# [4] = molecular target: T1, Peptidyl-prolyl cis-trans isomerase NIMA-interacting 1; assay: Inhibition of His-tagged PIN1 (unknown origin) TAMRA labelled Bth-D-pThr-Pip-L-2Nal as substrate incubated for 30 mins by fluorescence polarization analysis
# [5] = molecular target: Protein cereblon/Peptidyl-prolyl cis-trans isomerase NIMA-interacting 1 (Homo sapiens, UniProt Q13526+Q96SW2); assay: PROTAC activity at CRBN/PIN1 in human MDA-MB-468 cells assessed as induction of PIN1 degradation incubated for 24 hrs by high content analysis
# Chain of Protein cereblon/Peptidyl-prolyl cis-trans isomerase NIMA-interacting 1 (Q13526 whole entry): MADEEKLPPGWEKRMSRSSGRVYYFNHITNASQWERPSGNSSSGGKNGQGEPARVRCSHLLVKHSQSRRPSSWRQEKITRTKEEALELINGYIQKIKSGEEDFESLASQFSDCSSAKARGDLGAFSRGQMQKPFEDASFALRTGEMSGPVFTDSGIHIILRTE
# Chain of Protein cereblon/Peptidyl-prolyl cis-trans isomerase NIMA-interacting 1 (Q96SW2 whole entry): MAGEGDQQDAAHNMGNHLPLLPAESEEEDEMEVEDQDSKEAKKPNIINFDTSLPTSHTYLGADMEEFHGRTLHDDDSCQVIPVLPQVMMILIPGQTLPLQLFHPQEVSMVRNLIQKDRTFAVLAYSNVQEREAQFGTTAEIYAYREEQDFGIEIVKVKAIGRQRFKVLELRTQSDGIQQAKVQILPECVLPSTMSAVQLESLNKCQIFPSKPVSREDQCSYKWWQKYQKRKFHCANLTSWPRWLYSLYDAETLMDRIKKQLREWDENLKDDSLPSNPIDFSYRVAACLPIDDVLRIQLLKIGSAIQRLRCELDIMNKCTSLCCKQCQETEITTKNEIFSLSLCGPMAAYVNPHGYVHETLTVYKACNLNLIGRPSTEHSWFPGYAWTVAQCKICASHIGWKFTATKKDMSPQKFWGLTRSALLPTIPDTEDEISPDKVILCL
# [6] = molecular target: T1, Peptidyl-prolyl cis-trans isomerase NIMA-interacting 1
# [7] = molecular target: T1, Peptidyl-prolyl cis-trans isomerase NIMA-interacting 1; assay: Inhibition of recombinant human PIN1 prolyl isomerase activity measured after 180 mins
# T1 sequence (Q13526 whole entry): as the sequence (Q13526 whole entry) above
SMILES,GI50 (MDA-MB-468),GI50 (Huh-7),GI50 (PANC-1),IC50 [4],further results
CNC(=O)/C(=C\c1cn(-c2ccc(-c3ccc(C#N)cc3)cc2)nn1)NC(=O)C1(c2ccccc2C)CC1,13.8 µM,15.4 µM,23.1 µM,0.25 µM,Kd [1]: 0.12 µM; efflux ratio at 2 h [2]: 4.77; Papp A→B at 2 h [3]: 0.78 ×10⁻⁶ cm/s
Cc1ccccc1C1(C(=O)NC(Cc2cn(-c3ccc(-c4ccc(C#N)cc4)cc3)nn2)C(=O)NC2CCN(C)CC2)CC1 (stereo unspecified),36.8 µM,9.9 µM,9.3 µM,,Papp A→B at 2 h [3]: 0.01 ×10⁻⁶ cm/s
CNC(=O)C(Cc1cn(-c2ccc(C3CCN(C)CC3)cc2)nn1)NC(=O)C1(c2ccccc2)CC1 (stereo unspecified),,,,> 100 µM,
CNC(=O)C(Cc1cn(-c2ccc(-c3ccc(C#N)cc3)cc2)nn1)NC(=O)C(C)(C)c1ccccc1 (stereo unspecified),,,,2.09 µM,Kd [1]: 2.93 µM
CC(C)(C)NC(=O)C(Cc1cn(-c2ccc(-c3ccc(C#N)cc3)cc2)nn1)NC(=O)C1(c2ccccc2)CC1 (stereo unspecified),,,,> 100 µM,
CNC(=O)C(Cc1cn(-c2ccc(-c3ccc(C#N)cc3)cc2)nn1)NC(=O)C1(c2ccccc2)CCCCC1 (stereo unspecified),,,,> 100 µM,
CC(C)(C)CN(C(=O)CCl)C1CCS(=O)(=O)C1 (stereo unspecified),,,,,Ki [6]: 0.017 µM
Cc1cccnc1C1(C(=O)NC(Cc2cn(-c3ccc(-c4ccc(C#N)cc4)cc3)nn2)C(=O)NC2CCN(CCCOc3cccc4c3C(=O)N(C3CCC(=O)NC3=O)C4=O)CC2)CC1 (stereo unspecified),> 30 µM,> 30 µM,> 30 µM,,DC50 [5]: 0.041 µM
CNC(=O)C(Cc1cn(-c2ccc(-c3ccc(C#N)cc3)cc2)nn1)NC(=O)Cc1ccccc1 (stereo unspecified),,,,> 100 µM,
Cc1cccnc1C1(C(=O)NC(Cc2cn(-c3ccc(-c4ccc(C#N)cc4)cc3)nn2)C(=O)NC2CCN(CCCCCOc3cccc4c3C(=O)N(C3CCC(=O)NC3=O)C4=O)CC2)CC1 (stereo unspecified),> 30 µM,> 30 µM,> 30 µM,,DC50 [5]: 0.019 µM
CNC(=O)C(Cc1cn(-c2ccc(-c3ccc(C#N)cc3)cc2)nn1)NC(=O)C1(c2ncccc2C)CC1 (stereo unspecified),4.6 µM,> 30 µM,> 30 µM,0.36 µM,Kd [1]: 0.37 µM
Cc1cccnc1C1(C(=O)NC(Cc2cn(-c3ccc(-c4ccc(C#N)cc4)cc3)nn2)C(=O)NCCCCOc2cccc3c2C(=O)N(C2CCC(=O)NC2=O)C3=O)CC1 (stereo unspecified),16.5 µM,20.7 µM,> 30 µM,,DC50 [5]: 0.071 µM
CNC(=O)C(Cc1cn(Cc2cc3ccccc3s2)nn1)NC(=O)C1(c2ccccc2)CC1 (stereo unspecified),,,,> 100 µM,Kd [1]: > 50 µM
CC(C)(C)c1ccc(S(=O)(=O)/N=C2\C=C(SCC(=O)O)C(=O)c3ccccc32)cc1,,,,,IC50 [7]: 0.64 µM

# More lines, main results first:
GI50 (MDA-MB-468),GI50 (Huh-7),GI50 (PANC-1),IC50 [4],SMILES,further results
,,,> 100 µM,CNC(=O)C(Cc1cn(-c2ccc(-c3ccc(C#N)cc3)cc2)nn1)NC(=O)C1(c2ccccc2)CCCC1 (stereo unspecified),
2.7 µM,5.8 µM,> 30 µM,,Cc1cccnc1C1(C(=O)NC(Cc2cn(-c3ccc(-c4ccc(C#N)cc4)cc3)nn2)C(=O)NCCCOc2cccc3c2C(=O)N(C2CCC(=O)NC2=O)C3=O)CC1 (stereo unspecified),DC50 [5]: 0.02 µM
,,,> 100 µM,CNC(=O)C(Cc1cn(-c2ccc(-c3ccc(C#N)cc3)cc2)nn1)NC(=O)C1(c2ccccc2)CCC1 (stereo unspecified),
,,,> 10 µM,CNC(=O)C(Cc1cn(-c2ccn(C)n2)nn1)NC(=O)C1(c2ccccc2)CC1 (stereo unspecified),Kd [1]: 39.3 µM
